According to patent publication US20080292588A1, “1-METHYL-BENZO[1,2,4]THIADIAZINE 1-OXIDE DERIVATIVES” (Anadys Pharmaceuticals, Inc., priority 2007, published 2008):
pIC50: −log10 of the molar value. Like-named read-outs stand apart in the source and are kept apart here.

Biological target: HCV NS5B polymerase (Hepatitis C virus genotype 1b, UniProt Q9WMX2)
Assay: HCV NS5B polymerase inhibition assay (FlashPlate, [α-33P]GTP incorporation)
Format: biochemical
Experimental: Compounds were tested for HCV NS5B polymerase inhibition. Assays were performed in a 96-well streptavidin-coated FlashPlate using 20 nM enzyme, 1.4 μCi of [(α-^33P]GTP, 0.63 μM GTP, and 250 nM 5′biotinylated oligo (rG13)/poly rC in 20 mM Tris-HCl, pH 7.5, 5 mM MgCl2, 5 mM dithiothreitol, 0.1 g/L bovine serum albumin, and 100 U/ml RNAse inhibitor. The reaction was stopped by aspiration after 75 min at 28° C. and the plate was washed several times. After washing and drying the plate, incorporated radioactivity was counted using a Microbeta scintillation counter. IC50 values were calculated relative to the uninhibited control and inhibition data were fitted to a 4-parameter IC50 equation. For very potent inhibitors, the data were fitted to a tight binding quadratic equation to obtain IC50 values.

[1] = 20 nM enzyme, 75 min at 28° C., read-out: NS5B IC50
[2] = read-out: NS5B polymerase inhibition IC50

Chain of HCV NS5B polymerase (Q9WMX2 2420-3010): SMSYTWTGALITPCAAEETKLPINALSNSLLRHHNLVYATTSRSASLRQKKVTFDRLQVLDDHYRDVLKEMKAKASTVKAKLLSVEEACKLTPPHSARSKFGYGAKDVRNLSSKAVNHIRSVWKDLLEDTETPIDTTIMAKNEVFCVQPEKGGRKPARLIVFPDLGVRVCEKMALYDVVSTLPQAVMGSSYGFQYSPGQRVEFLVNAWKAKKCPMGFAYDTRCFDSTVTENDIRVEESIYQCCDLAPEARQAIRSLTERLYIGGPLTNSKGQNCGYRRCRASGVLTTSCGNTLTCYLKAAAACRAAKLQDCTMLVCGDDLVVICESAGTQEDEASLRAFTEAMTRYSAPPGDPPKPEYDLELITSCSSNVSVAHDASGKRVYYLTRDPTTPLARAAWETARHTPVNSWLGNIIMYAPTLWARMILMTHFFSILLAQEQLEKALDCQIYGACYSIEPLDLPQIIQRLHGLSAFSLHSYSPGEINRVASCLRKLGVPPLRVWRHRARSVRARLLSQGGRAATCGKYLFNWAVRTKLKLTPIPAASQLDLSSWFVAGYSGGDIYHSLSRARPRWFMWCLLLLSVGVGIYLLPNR

| pIC50 [1] | pIC50 [2] | Compound |
| --- | --- | --- |
| > 6.00 | > 6.00 | CC(C)(C)CCn1nc(-c2cccs2)c(O)c(C2=Nc3ccc(NS(C)(=O)=O)cc3S(C)(=O)=N2)c1=O (racemic) [Compound 22, N-{3-[2-(3,3-dimethyl-butyl)-5-hydroxy-3-oxo-6-thiophen-2-yl-2,3-dihydro-pyridazin-4-yl]-1-methyl-1-oxo-1l6-benzo[1,2,4]thiadiazin-7-yl}-methanesulfonamide] |
| 4.00 to 6.00 | > 4.00 | CC(C)(C)CCn1nc(-c2cccs2)c(O)c(C2=Nc3ccc(NS(C)(=O)=O)cc3[S@](C)(=O)=N2)c1=O [Compound 24] |
| > 6.00 | > 6.00 | CS(=O)(=O)Nc1ccc2c(c1)S(C)(=O)=NC(C1=C(O)[C@@H]3[C@H]4CC[C@H](C4)[C@@H]3N(Cc3ccc(F)cc3)C1=O)=N2 (stereo partly drawn) [Compound 54, N-{3-[3-(4-fluoro-benzyl)-6-hydroxy-4-oxo-3-aza-tricyclo[6.2.1.0^2,7]undec-5-en-5-yl]-1-methyl-1-oxo-1λ^6-benzo[1,2,4]thiadiazin-7-yl}-methanesulfonamide] |
| > 6.00 | > 6.00 | CC(C)(C)CCn1nc(-c2cccs2)c(O)c(C2=Nc3ccc(NS(C)(=O)=O)cc3[S@@](C)(=O)=N2)c1=O [Compound 23] |
| > 6.00 | > 6.00 | CC(C)(C)CC[C@@]1(C)C(=O)C(C2=Nc3ccc(NS(C)(=O)=O)cc3S(C)(=O)=N2)=C(O)c2ccccc21 (mixture of isomers) [Compound 36, N-{3-[4-(3,3-dimethyl-butyl)-1-hydroxy-4-methyl-3-oxo-3,4-dihydro-naphthalen-2-yl]-1-methyl-1-oxo-1λ^6-benzo[1,2,4]thiadiazin-7-yl}-methanesulfonamide] |
| > 6.00 | > 6.00 | CS(=O)(=O)Nc1ccc2c(c1)S(C)(=O)=NC(C1=C(O)[C@H]3[C@H]([C@@H]4CC[C@H]3O4)N(Cc3ccc(F)cc3)C1=O)=N2 (mixture of isomers) [Compound 63, N-{3-[3-(4-fluoro-benzyl)-6-hydroxy-4-oxo-11-oxa-3-aza-tricyclo[6.2.1.0^2,7]undec-5-en-5-yl]-1-methyl-1-oxo-1λ^6-benzo[1,2,4]thiadiazin-7-yl}-methanesulfonamide] |
| > 6.00 | > 6.00 | CC(C)(C)CCn1nc(N2CCCC2)c(O)c(C2=Nc3ccc(NS(C)(=O)=O)cc3S(C)(=O)=N2)c1=O (stereo not drawn) [Compound 28, N-{3-[2-(3,3-dimethyl-butyl)-5-hydroxy-3-oxo-6-pyrrolidin-1-yl-2,3-dihydro-pyridazin-4-yl]-1-methyl-1-oxo-1λ^6-benzo[1,2,4]thiadiazin-7-yl}-methanesulfonamide] |
| 4.00 to 6.00 | > 4.00 | CS1(=O)=NC(C2=C(O)[C@@H]3CCC[C@@H]3N(Cc3ccc(F)cc3)C2=O)=Nc2ccccc21 (stereo in doubt) [Compound 68, 1-(4-fluoro-benzyl)-4-hydroxy-3-(1-methyl-1-oxo-1λ^6-benzo[1,2,4]thiadiazin-3-yl)-1,4a,5,6,7,7a-hexahydro-[1]pyrindin-2-one] |
| > 6.00 | > 6.00 | CC(C)(C)[C@H]1C(O)=C(C2=Nc3ccc(NS(C)(=O)=O)cc3S(C)(=O)=N2)C(=O)N1Cc1ccc(F)c(Cl)c1 (stereo in doubt) [Compound 32, N-{3-[5-tert-butyl-1-(3-chloro-4-fluoro-benzyl)-4-hydroxy-2-oxo-2,5-dihydro-1H-pyrrol-3-yl]-1-methyl-1-oxo-1λ^6-benzo[1,2,4]thiadiazin-7-yl}-methanesulfonamide] |
| > 6.00 | > 6.00 | CC(C)(C)CC[C@@]1(C)C(=O)C(C2=Nc3ccc(NS(C)(=O)=O)cc3[S@](C)(=O)=N2)=C(O)c2ccccc21 [Compound 38] |
| > 6.00 | > 6.00 | CC(C)(C)CC[C@@]1(C)C(=O)C(C2=Nc3ccc(NS(C)(=O)=O)cc3[S@@](C)(=O)=N2)=C(O)c2ccccc21 [Compound 37] |
| > 6.00 | > 6.00 | CC[C@H]1CC(O)=C(C2=Nc3ccc(NS(C)(=O)=O)cc3S(C)(=O)=N2)C(=O)N1Cc1ccc(F)cc1 (mixture of isomers) [Compound 75, N-{3-[6-(S)-Ethyl-1-(4-fluoro-benzyl)-4-hydroxy-2-oxo-1,2,5,6-tetrahydro-pyridin-3-yl]-1-methyl-1-oxo-1λ^6-benzo[1,2,4]thiadiazin-7-yl}-methanesulfonamide] |
